One may read the EC50 as the concentration at which the effect is half-maximal. The low end stands for an effect from little substance, the high end for a need for much substance. Usually IC50 stands for the concentration that gives 50% inhibition. A higher IC50 goes with weaker potency. By half-life is commonly meant how long it takes for the measured level to halve.

Data set [1] addresses T1, Peroxisome proliferator-activated receptor delta (Homo sapiens, UniProt Q03181).
T1 sequence (Q03181 whole entry): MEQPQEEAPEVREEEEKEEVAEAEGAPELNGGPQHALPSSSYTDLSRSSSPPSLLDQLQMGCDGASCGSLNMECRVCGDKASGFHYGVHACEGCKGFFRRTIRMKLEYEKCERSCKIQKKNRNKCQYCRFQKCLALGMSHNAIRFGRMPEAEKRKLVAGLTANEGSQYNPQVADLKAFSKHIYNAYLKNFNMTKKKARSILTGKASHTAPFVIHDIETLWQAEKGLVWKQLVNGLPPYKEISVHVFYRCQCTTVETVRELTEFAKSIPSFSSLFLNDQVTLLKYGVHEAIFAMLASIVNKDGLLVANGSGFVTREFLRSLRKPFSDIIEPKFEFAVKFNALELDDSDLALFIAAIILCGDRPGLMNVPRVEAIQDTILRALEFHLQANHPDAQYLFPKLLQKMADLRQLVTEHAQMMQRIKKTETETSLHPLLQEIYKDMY
The data set can be described thus: Maximum transcriptional activation of human PPAR delta receptor.

Data set [2] deals with T1, Peroxisome proliferator-activated receptor delta. The data set can be described thus: Binding affinity for human PPAR delta receptor.
Data set [3] concerns the target T2, Peroxisome proliferator-activated receptor gamma (Homo sapiens, UniProt P37231).
T2 sequence (P37231 whole entry): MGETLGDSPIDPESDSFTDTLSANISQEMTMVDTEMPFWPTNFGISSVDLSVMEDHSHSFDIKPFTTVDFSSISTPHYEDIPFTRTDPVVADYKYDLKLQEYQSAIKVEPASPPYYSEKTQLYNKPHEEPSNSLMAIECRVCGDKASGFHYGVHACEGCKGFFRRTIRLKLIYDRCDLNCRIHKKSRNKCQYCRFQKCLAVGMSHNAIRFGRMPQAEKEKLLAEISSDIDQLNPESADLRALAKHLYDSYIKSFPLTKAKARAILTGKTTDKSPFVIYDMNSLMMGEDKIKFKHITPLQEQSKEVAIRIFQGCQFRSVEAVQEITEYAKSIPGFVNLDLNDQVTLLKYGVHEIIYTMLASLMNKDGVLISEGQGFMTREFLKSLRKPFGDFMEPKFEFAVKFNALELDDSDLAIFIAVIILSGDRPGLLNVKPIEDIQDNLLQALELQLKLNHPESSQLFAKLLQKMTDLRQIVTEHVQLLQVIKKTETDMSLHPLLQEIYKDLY
The data set can be described thus: Maximum transcriptional activation of human PPAR gamma receptor.

Data set [4] concerns the target T3, Peroxisome proliferator-activated receptor alpha (Homo sapiens, UniProt Q07869).
T3 sequence (Q07869 whole entry): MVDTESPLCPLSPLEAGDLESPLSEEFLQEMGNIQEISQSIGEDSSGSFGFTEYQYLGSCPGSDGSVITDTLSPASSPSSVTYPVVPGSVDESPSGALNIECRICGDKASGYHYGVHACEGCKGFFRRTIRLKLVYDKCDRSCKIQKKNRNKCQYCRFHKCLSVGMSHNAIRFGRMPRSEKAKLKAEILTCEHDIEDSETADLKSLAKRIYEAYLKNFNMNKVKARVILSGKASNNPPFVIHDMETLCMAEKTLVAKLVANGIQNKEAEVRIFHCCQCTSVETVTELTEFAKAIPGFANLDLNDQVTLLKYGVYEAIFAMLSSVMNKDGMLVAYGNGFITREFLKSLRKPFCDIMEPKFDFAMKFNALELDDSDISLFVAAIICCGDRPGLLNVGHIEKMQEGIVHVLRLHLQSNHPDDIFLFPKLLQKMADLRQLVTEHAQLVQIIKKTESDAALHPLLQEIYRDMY
Nature of the data set: Maximum transcriptional activation of human PPAR alpha receptor.

Data set [5] deals with T2, Peroxisome proliferator-activated receptor gamma. Nature of the data set: Maximum transcriptional activation of human PPAR gamma receptor; IA=inactive.
Data set [6] concerns the target T3, Peroxisome proliferator-activated receptor alpha. Nature of the data set: Maximum transcriptional activation of human PPAR alpha receptor; IA=inactive.
In data set [7] the target is T4, Peroxisome proliferator-activated receptor gamma (Mus musculus, UniProt P37238).
T4 sequence (P37238 whole entry): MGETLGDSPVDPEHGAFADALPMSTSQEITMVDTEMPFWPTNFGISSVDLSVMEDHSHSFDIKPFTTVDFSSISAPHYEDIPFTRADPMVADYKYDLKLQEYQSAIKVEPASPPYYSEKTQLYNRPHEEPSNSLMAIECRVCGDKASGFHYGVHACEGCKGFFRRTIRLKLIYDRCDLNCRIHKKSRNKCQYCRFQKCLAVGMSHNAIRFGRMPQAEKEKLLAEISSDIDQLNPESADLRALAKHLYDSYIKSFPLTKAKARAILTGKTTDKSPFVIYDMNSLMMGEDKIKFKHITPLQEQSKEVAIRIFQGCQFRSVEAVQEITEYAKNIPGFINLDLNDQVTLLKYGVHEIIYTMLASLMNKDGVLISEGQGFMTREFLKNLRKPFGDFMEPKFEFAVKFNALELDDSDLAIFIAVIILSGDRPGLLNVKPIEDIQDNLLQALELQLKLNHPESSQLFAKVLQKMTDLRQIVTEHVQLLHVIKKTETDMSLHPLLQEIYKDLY
The data set can be described thus: Activity against murine PPAR gamma receptor.

The nature of data set [8]: Half-life was measured in mice. To be noted: mouse, in vivo. It is filed as ADME, organism-based.

For `Cc1nc(-c2ccc(C(F)(F)F)cc2)sc1COc1ccc(CCC(=O)O)cc1`, the results for the EC50 in data set [1], in data set [3] and in data set [4] were 0.09 µM, 7.04 µM and 3 µM, respectively. For the same compound, in data set [2], the IC50 turned out to be 0.03 µM.
The matching figures for `Cc1cc(SCc2oc(-c3ccc(C(F)(F)F)cc3)nc2C)ccc1OCC(=O)O`: 0.01 µM, 1.61 µM, 2.5 µM and 0.003 µM.
Turning to `Cc1nc(-c2ccc(C(F)(F)F)cc2)oc1COc1ccc(C(=O)O)cc1`, the EC50 in data set [1] was 5.9 µM; in data set [5] it was “Not Active”; in data set [6], “Not Active”. This compound also displayed a half-maximal inhibitory concentration (IC50) in data set [2] of 5.5 µM.
Consider `Cc1cc(OCc2oc(-c3ccc(C(F)(F)F)cc3)nc2C)ccc1OCC(=O)O`, for which the EC50 in data set [1] is 0.03 µM; in data set [5], “Not Active”; in data set [4], 3.2 µM. This compound gave a half-inhibitory concentration (IC50) in data set [2] of 0.03 µM.
`Cc1nc(-c2ccc(C(F)(F)F)cc2)oc1CSc1ccc(OCC(=O)O)cc1`: the 50% effective concentration (EC50) in data set [1] was 0.42 µM; in data set [3], 6.4 µM; in data set [6], “Not Active”. In data set [2], this compound registered an IC50 of 0.09 µM.
On to `Cc1cc(SCc2sc(-c3ccc(C(F)(F)F)c(F)c3)nc2C)ccc1OCC(=O)O`, for which the EC50 in data set [3] was 2 µM; in data set [7] it was above 10 µM; in data set [4] it was 1.1 µM.
As for `Cc1nc(-c2ccc(C(F)(F)F)cc2)sc1COc1ccc(CC(=O)O)cc1`, the EC50 in data set [1] was 1.9 µM; in data set [3], 7.9 µM; in data set [4], 6.9 µM. For the same compound, the IC50 in data set [2] is 1 µM.
As to `Cc1nc(-c2ccc(C(F)(F)F)cc2)oc1COc1ccc(CCC(=O)O)cc1`, the half-life in data set [8] was below 10 min. In addition, the results for the EC50 in data set [1], in data set [3] and in data set [4] were 0.06 µM, 3.3 µM and 0.28 µM, respectively. For the same compound, the IC50 in data set [2] came out at 0.09 µM.
Regarding `Cc1cc(OCc2sc(-c3ccc(C(F)(F)F)cc3)nc2C)ccc1CCC(=O)O`, the 50% effective concentration (EC50) is 0.03 µM in data set [1], 4.2 µM in data set [3] and 1.7 µM in data set [4]. The compound also had an IC50 in data set [2] of 0.06 µM.
On the same counts, the results for `Cc1cc(OCc2sc(-c3ccc(C(F)(F)F)cc3)nc2C)ccc1/C=C/C(=O)O` are 0.02 µM, 2.7 µM, 3.2 µM and 1 µM.
For the compound `Cc1nc(-c2ccc(C(F)(F)F)cc2)oc1COc1ccc(OCC(=O)O)cc1`, the values for the half-maximal effective concentration (EC50) in data set [1], in data set [3] and in data set [6] were 0.47 µM, 9.8 µM and “Not Active”, respectively. This compound also came in with an IC50 in data set [2] of 0.34 µM.
